According to ChEMBL document CHEMBL4251595, “Green approach for the synthesis of thiophenyl pyrazoles and isoxazoles by adopting 1,3-dipolar cycloaddition methodology and their antimicrobial activity” (2018):
Calls of active or inactive are those of the source. No cut-off for these calls is given here.

Assays:
Type in all cases: functional
[1] = system: Penicillium chrysogenum; test: Antifungal activity against Penicillium chrysogenum assessed as zone of inhibition at 75 ug/well after 48 hrs by agar well diffusion method; conditions: for zone of inhibition at 75 µg/disc: read-out: DIZ
[2] = system: Klebsiella pneumoniae; test: Antimicrobial activity against Klebsiella pneumoniae assessed as zone of inhibition at 75 ug/well after 24 hrs by agar well diffusion method; conditions: for zone of inhibition at 75 µg/disc: read-out: DIZ
[3] = system: Bacillus subtilis; test: Antimicrobial activity against Bacillus subtilis assessed as zone of inhibition at 100 ug/well after 24 hrs by agar well diffusion method; conditions: for zone of inhibition at 100 µg/disc: read-out: DIZ
[4] = system: Klebsiella pneumoniae; test: Antimicrobial activity against Klebsiella pneumoniae assessed as zone of inhibition at 100 ug/well after 24 hrs by agar well diffusion method; conditions: for zone of inhibition at 100 µg/disc: read-out: DIZ
[5] = system: Pseudomonas aeruginosa; test: Antimicrobial activity against Pseudomonas aeruginosa assessed as zone of inhibition at 100 ug/well after 24 hrs by agar well diffusion method; conditions: for zone of inhibition at 100 µg/disc: read-out: DIZ
[6] = system: Pseudomonas aeruginosa; test: Antimicrobial activity against Pseudomonas aeruginosa assessed as zone of inhibition at 50 ug/well after 24 hrs by agar well diffusion method; conditions: for zone of inhibition at 50 µg/disc: read-out: DIZ
[7] = system: Aspergillus niger; test: Antifungal activity against Aspergillus niger assessed as zone of inhibition at 100 ug/well after 48 hrs by agar well diffusion method; conditions: for zone of inhibition at 100 µg/disc: read-out: DIZ
[8] = system: Pseudomonas aeruginosa; test: Antimicrobial activity against Pseudomonas aeruginosa assessed as zone of inhibition at 75 ug/well after 24 hrs by agar well diffusion method; conditions: for zone of inhibition at 75 µg/disc: read-out: DIZ
[9] = system: Penicillium chrysogenum; test: Antifungal activity against Penicillium chrysogenum assessed as zone of inhibition at 100 ug/well after 48 hrs by agar well diffusion method; conditions: for zone of inhibition at 100 µg/disc: read-out: DIZ
[10] = system: Staphylococcus aureus; test: Antimicrobial activity against Staphylococcus aureus assessed as zone of inhibition at 100 ug/well after 24 hrs by agar well diffusion method; conditions: for zone of inhibition at 100 µg/disc: read-out: DIZ
[11] = system: Penicillium chrysogenum; test: Antifungal activity against Penicillium chrysogenum assessed as zone of inhibition at 50 ug/well after 48 hrs by agar well diffusion method; conditions: for zone of inhibition at 50 µg/disc: read-out: DIZ
[12] = system: Aspergillus niger; test: Antifungal activity against Aspergillus niger assessed as zone of inhibition at 50 ug/well after 48 hrs by agar well diffusion method; conditions: for zone of inhibition at 50 µg/disc: read-out: DIZ
[13] = system: Staphylococcus aureus; test: Antimicrobial activity against Staphylococcus aureus assessed as zone of inhibition at 50 ug/well after 24 hrs by agar well diffusion method; conditions: for zone of inhibition at 50 µg/disc: read-out: DIZ
[14] = system: Bacillus subtilis; test: Antimicrobial activity against Bacillus subtilis assessed as zone of inhibition at 50 ug/well after 24 hrs by agar well diffusion method; conditions: for zone of inhibition at 50 µg/disc: read-out: DIZ
[15] = system: Staphylococcus aureus; test: Antimicrobial activity against Staphylococcus aureus assessed as zone of inhibition at 75 ug/well after 24 hrs by agar well diffusion method; conditions: for zone of inhibition at 75 µg/disc: read-out: DIZ
[16] = system: Aspergillus niger; test: Antifungal activity against Aspergillus niger assessed as zone of inhibition at 75 ug/well after 48 hrs by agar well diffusion method; conditions: for zone of inhibition at 75 µg/disc: read-out: DIZ
[17] = system: Klebsiella pneumoniae; test: Antimicrobial activity against Klebsiella pneumoniae assessed as zone of inhibition at 50 ug/well after 24 hrs by agar well diffusion method; conditions: for zone of inhibition at 50 µg/disc: read-out: DIZ
[18] = system: Bacillus subtilis; test: Antimicrobial activity against Bacillus subtilis assessed as zone of inhibition at 75 ug/well after 24 hrs by agar well diffusion method; conditions: for zone of inhibition at 75 µg/disc: read-out: DIZ

| Compound | zone of inhibition at 75 µg/disc [1] | zone of inhibition at 75 µg/disc [2] | zone of inhibition at 100 µg/disc [3] | zone of inhibition at 100 µg/disc [4] | zone of inhibition at 100 µg/disc [5] | zone of inhibition at 100 µg/disc [7] | zone of inhibition at 75 µg/disc [8] | zone of inhibition at 100 µg/disc [9] | zone of inhibition at 100 µg/disc [10] | zone of inhibition at 50 µg/disc [12] | zone of inhibition at 50 µg/disc [13] | zone of inhibition at 50 µg/disc [14] | zone of inhibition at 75 µg/disc [15] | zone of inhibition at 75 µg/disc [16] | zone of inhibition at 50 µg/disc [17] | zone of inhibition at 75 µg/disc [18] | diameter of the inhibition zone (DIZ) [6] | diameter of the inhibition zone (DIZ) [8] | diameter of the inhibition zone (DIZ) [11] | diameter of the inhibition zone (DIZ) [12] | also measured |
| --- | --- | --- | --- | --- | --- | --- | --- | --- | --- | --- | --- | --- | --- | --- | --- | --- | --- | --- | --- | --- | --- |
| O=C(NS(=O)(=O)c1c(-c2ccccc2)noc1-c1ccccc1)c1ccc(Cl)s1 | 19 mm | 29 mm | 35 mm | 32 mm | 21 mm | 28 mm | 19 mm | 22 mm | 28 mm | 21 mm | 23 mm | 30 mm | 26 mm | 24 mm | 26 mm | 32 mm | – | – | – | – | zone of inhibition at 50 µg/disc [6]: 17 mm; zone of inhibition at 50 µg/disc [11]: 17 mm |
| Cc1ccc(C2C(S(=O)(=O)NC(=O)c3cccs3)C(c3ccccc3)=NN2c2ccccc2)cc1 (configuration not stated) | – | – | – | – | – | 10 mm | – | – | – | – | – | – | – | 8 mm | – | – | inactive | inactive | inactive | inactive | diameter of the inhibition zone (DIZ) [1]: inactive; diameter of the inhibition zone (DIZ) [2]: inactive; diameter of the inhibition zone (DIZ) [3]: inactive; diameter of the inhibition zone (DIZ) [4]: inactive; diameter of the inhibition zone (DIZ) [5]: inactive; diameter of the inhibition zone (DIZ) [9]: inactive; diameter of the inhibition zone (DIZ) [10]: inactive; diameter of the inhibition zone (DIZ) [13]: inactive; diameter of the inhibition zone (DIZ) [14]: inactive; diameter of the inhibition zone (DIZ) [15]: inactive; diameter of the inhibition zone (DIZ) [17]: inactive; diameter of the inhibition zone (DIZ) [18]: inactive |
| Cc1ccc(-c2onc(-c3ccccc3)c2S(=O)(=O)NC(=O)c2ccc(Cl)s2)cc1 | 16 mm | 22 mm | 25 mm | 24 mm | 14 mm | 26 mm | 10 mm | 18 mm | 19 mm | 18 mm | 13 mm | 21 mm | 17 mm | 21 mm | 17 mm | 23 mm | – | – | – | – | zone of inhibition at 50 µg/disc [6]: 8 mm; zone of inhibition at 50 µg/disc [11]: 14 mm |
| Cc1ccc(-c2c(S(=O)(=O)NC(=O)c3ccc(Cl)s3)c(-c3ccccc3)nn2-c2ccccc2)cc1 | 10 mm | 17 mm | 24 mm | 20 mm | 13 mm | 23 mm | – | 13 mm | 16 mm | 16 mm | 12 mm | 18 mm | 15 mm | 19 mm | 15 mm | 20 mm | inactive | inactive | inactive | – | – |
| O=C(NS(=O)(=O)/C=C/c1ccccc1)c1ccc(Cl)s1 | 13 mm | 22 mm | 27 mm | 25 mm | 17 mm | 21 mm | 14 mm | 17 mm | 21 mm | 15 mm | 16 mm | 22 mm | 19 mm | 17 mm | 19 mm | 24 mm | – | – | – | – | zone of inhibition at 50 µg/disc [6]: 12 mm; zone of inhibition at 50 µg/disc [11]: 10 mm |
| Cc1ccc(/C=C/S(=O)(=O)NC(=O)c2cccs2)cc1 | – | 13 mm | 18 mm | 16 mm | 9 mm | 12 mm | 7 mm | 10 mm | 12 mm | – | – | 13 mm | 11 mm | 8 mm | 12 mm | 15 mm | inactive | – | inactive | inactive | diameter of the inhibition zone (DIZ) [1]: inactive; diameter of the inhibition zone (DIZ) [13]: inactive |
| Cc1ccc(/C=C/S(=O)(=O)NC(=O)c2ccc(Cl)s2)cc1 | 10 mm | 15 mm | 22 mm | 17 mm | 12 mm | 14 mm | 11 mm | 12 mm | 14 mm | 9 mm | 10 mm | 17 mm | 13 mm | 11 mm | 14 mm | 19 mm | inactive | – | inactive | – | – |
| O=C(NS(=O)(=O)C1C(c2ccccc2)=NN(c2ccccc2)C1c1ccc([N+](=O)[O-])cc1)c1cccs1 (configuration not stated) | 9 mm | 11 mm | 17 mm | 13 mm | – | 15 mm | – | 12 mm | 9 mm | – | – | 12 mm | – | 12 mm | 9 mm | 14 mm | inactive | inactive | inactive | inactive | diameter of the inhibition zone (DIZ) [5]: inactive; diameter of the inhibition zone (DIZ) [13]: inactive; diameter of the inhibition zone (DIZ) [15]: inactive |
| Cc1ccc(C2C(S(=O)(=O)NC(=O)c3ccc(Cl)s3)C(c3ccccc3)=NN2c2ccccc2)cc1 (configuration not stated) | – | – | – | – | – | – | – | – | – | – | – | – | – | – | – | – | inactive | inactive | inactive | inactive | diameter of the inhibition zone (DIZ) [1]: inactive; diameter of the inhibition zone (DIZ) [2]: inactive; diameter of the inhibition zone (DIZ) [3]: inactive; diameter of the inhibition zone (DIZ) [4]: inactive; diameter of the inhibition zone (DIZ) [5]: inactive; diameter of the inhibition zone (DIZ) [7]: inactive; diameter of the inhibition zone (DIZ) [9]: inactive; diameter of the inhibition zone (DIZ) [10]: inactive; diameter of the inhibition zone (DIZ) [13]: inactive; diameter of the inhibition zone (DIZ) [14]: inactive; diameter of the inhibition zone (DIZ) [15]: inactive; diameter of the inhibition zone (DIZ) [16]: inactive; diameter of the inhibition zone (DIZ) [17]: inactive; diameter of the inhibition zone (DIZ) [18]: inactive |
